# In patent publication US10564164B2, “Fluorescent probe, singlet oxygen detection agent, and singlet oxygen detection method” (Osaka University, priority 2014, dated 2020):
# Like-named read-outs stand apart in the source and are kept apart here.
# Legend:
# [1] = cited from earlier work
# [2] = Time-resolved phosphorimetry (singlet oxygen generation quantum yield); type: physicochemical; details: 250 μM in DMSO and methanol (1:9); 532 nm excitation
# Protocol: A sample of Rose Bengal and the Si-Me of Comparative Example 1 was prepared in a DMSO and methanol (1:9) solution placed in a 1×1×4 cm^3 quartz cell (the concentration of Rose Bengal=21.5 μM, and the concentration of Si-Me=250 μM).
# Second harmonic oscillation (532 nm, 4 nsfwhm, 5.0 mJ·cm^−2 pulse^−1) generated by a Q-switched Nd YAG laser (Surelite II-10, Continuum) was used as an excitation light. The light-induced luminescence of the sample cell was condensed on a quartz lens via a monochromator, and subsequently introduced into a near-infrared photomultiplier tube module (H10330A-75; Hamamatsu Photonics K.K.).
# After the amplification using a 350-MHz amplifier unit (SR445A; Stanford Research Systems), the output of the photomultiplier tube was sent to a gated photon counter (SR400; Stanford Research Systems) under direct PC control via a GPIB interface. In order to measure the lifetime of ^1O2, measurement was performed by changing the delay time between 0 to 50 μseconds at a gate width of 1.0 μsecond, and accumulating the results (repeated 5 times).
# HeLa cells = test: Selectivity of photosensitizer: intracellular singlet oxygen detection with Si-DMA; type: cell-based; details: HeLa cells, Si-DMA probe; 60-second light irradiation; photosensitizer as labelled
# Protocol: Subsequently, a quick protocol provided by Molecular Probe® for introducing CellROX Green was followed. Using diluted Si-DMA and Si-Me, incubation was performed for 30 minutes to two hours by an experiment. To introduce a photosensitizer, 150 μg/mL of 5-aminolevulinic acid (5-ALA) or 10 LM TMPyP4 were incubated for four hours and 24 hours, respectively. As a result, as previously reported, the conversion of 5-ALA into protoporphyrin IX (PpIX) in the mitochondria was confirmed by the fluorescence luminescence of PpIX.
# A KillerRed vector was expressed in accordance with a general Lipofectamine® 2000 (Invitrogen) protocol. More specifically, 2×10^5 Hela cells were subcultured in a 35-mm glass bottom dish. The cells reached about 50% confluent in the next day.
# Subsequently, a mixed solution of Lipofectamine reagent and DNA vector was obtained by mixing 6 μL Lipofectamine® 2000 with 7 μL pKillerRed-dMitovector ([…], Evrogen, catalog No. FP964) in an Opti-MEM solution (Gibco). Thereafter, the resulting solution was incubated for 20 minutes at room temperature. 300 μL of the mixed solution was added to a growth medium, and incubated for 24 hours. The expression of KillerRed was confirmed by monitoring KillerRed fluorescence using a wide-view microscope. […]
# Further, on the night before the treatment, 0.2×10^6 HeLa cells were seeded on a 35-mm dish, and pKillerRed-dMito vector (Evrogen) was introduced using Lipofectaimine®2000 (Invitrogen®), followed by 24-hour incubation as described above, thereby preparing HeLa cells containing […]. […] Light irradiation was performed for 30 seconds simultaneously at 0.5 W/cm^2 and 0.6 W/cm^2 using a 640-/532-nm laser (Coherent) and a wide-view fluorescence microscope system mounted in an IX81 inverted microscope (Olympus Corporation). […]
# Further, in this Experiment Example, 60-second light irradiation was performed using three kinds of photosensitizers, and an average number of pseudo colors appeared in the photo and an increase thereof were measured. […]
smiles,measurement,setting,value
"O=C1OC2(c3cc(Cl)c(O)cc3Oc3cc(O)c(Cl)cc32)c2ccccc21 [2,7-dichlorofluorescein]",ΦΔ (singlet oxygen generation quantum yield),[1]; comparison value for SOSG chromophore,0.06
O=C([O-])c1c(Cl)c(Cl)c(Cl)c(Cl)c1-c1c2cc(I)c(=O)c(I)c-2oc2c(I)c([O-])c(I)cc12.[Na+].[Na+] [Rose Bengal],ΦΔ (singlet oxygen generation quantum yield),"[1]; in methanol, reference value",0.76
Cc1ccccc1C1=C2C=CC(=[N+](C)C)C=C2[Si](C)(C)c2cc(N(C)C)ccc21 [Si-Me],ΦΔ (singlet oxygen generation quantum yield),[2],about 0.02
"C[n+]1ccc(-c2c3nc(c(-c4cc[n+](C)cc4)c4ccc([nH]4)c(-c4cc[n+](C)cc4)c4nc(c(-c5cc[n+](C)cc5)c5ccc2[nH]5)C=C4)C=C3)cc1 [TMPyP4, tetra-(N-methyl-4-pyridyl)porphyrin, reference compound]",average number of pseudo colors during light irradiation (Si-DMA fluorescence),HeLa cells,decreased
